Among the data in US20250163057A1, “DCN-1 MODULATING COMPOUNDS AND METHODS OF USE THEREOF” (Cellarity, Inc., priority 2023, published 2025) are IC50 values, retold here.

SMILES strings stand for the structures. Read-outs that look alike come from different tables or passages of the source. Where only a bound is given, the exact number is not on record here.

The test has as its target DCN1 (DCUND1) protein PONY domain (Homo sapiens (Human), UniProt Q96GG9). As to the kind of experiment: TR-FRET assay, DCN1 binding with FAM-labeled probe. The method, boiled down: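 First, the E. coli-derived PONY domain was biotinylated and paired with streptavidin Tb cryptate. Compounds in 0.1% DMSO were then added to DCN1 and FAM-probe (5 nM/20 nM, or 0.31 nM/900 nM total with 800 nM unlabelled) in TritonX, 200 mM NaCl buffer. Finally, TR-FRET ratios were recorded at 1, 5 and 24 hrs.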
(In general: In TR-FRET formats the signal depends on donor and acceptor labels being close together.)

Setting [1] is: 24 hr after treatment with compound, read-out: TR FRET IC50 24 hr.
[2] abbreviates: TR FRET IC50 1 hr (nM), 1 hr after treatment with compound.

DCN1 (DCUND1) protein PONY domain, sequence (Q96GG9 60-248): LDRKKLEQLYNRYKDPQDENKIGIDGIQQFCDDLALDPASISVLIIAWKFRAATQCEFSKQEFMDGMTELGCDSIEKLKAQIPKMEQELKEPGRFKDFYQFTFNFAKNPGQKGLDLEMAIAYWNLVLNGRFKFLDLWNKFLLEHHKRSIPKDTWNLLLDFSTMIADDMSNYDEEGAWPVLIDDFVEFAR

`CCN1C(=O)[C@@H](NC(=O)c2cccc(C(F)(F)F)c2)[C@@H](c2ccc(F)cc2)c2c(C(C)(C)NC#N)nn(-c3ccccc3)c21` (racemic) [Compound I-144, rac-N-((4R,5R)-3-(2-cyanamidopropan-2-yl)-7-ethyl-4-(4-fluorophenyl)-6-oxo-1-phenyl-4,5,6,7-tetrahydro-1H-pyrazolo[3,4-b]pyridin-5-yl)-3-(trifluoromethyl)benzamide]: the IC50 (usually the concentration at which inhibition is half-maximal) reads like this: under setting [1], 200 to 1000 nM; under setting [2], 1000 to 3000 nM.

`CCN1C(=O)[C@@H](NC(=O)C23CC(C(F)(F)F)(C2)C3)[C@@H](C2CC2)c2c(C(=O)N3[C@H](C#N)C[C@H]4C[C@H]43)nn(C3CCOCC3)c21` [Compound I-701]: the IC50 reads like this: under setting [1], 1000 to 3000 nM; under setting [2], 1000 to 3000 nM.

Turning to `CCN1C(=O)[C@@H](NC(=O)c2cccc(C(F)(F)F)c2)[C@@H](c2ccc(F)cc2)c2c(NC(=O)C#CCN(C)C)nn(-c3ccccc3)c21` (racemic) [Compound I-93, rac-N-((4R,5R)-3-(4-(dimethylamino)but-2-ynamido)-7-ethyl-4-(4-fluorophenyl)-6-oxo-1-phenyl-4,5,6,7-tetrahydro-1H-pyrazolo[3,4-b]pyridine-5-yl)-3-(trifluoromethyl)benzamide], the IC50 is ≤ 200 nM under setting [1] and ≤ 200 nM under setting [2].

In the case of `CCN1C(=O)[C@@H](NC(=O)c2cccc(C(F)(F)F)c2)[C@@H](c2ccc(F)cc2)c2c(CNC(=O)C3=CCCN(C)C3)nn(-c3ccccc3)c21` (racemic) [Compound I-28], the IC50 by setting is: under setting [1], ≤ 200 nM; under setting [2], 200 to 1000 nM.

On to `CCN1C(=O)[C@@H](NC(=O)c2cccc(C(F)(F)F)c2)[C@@H](c2ccc(F)cc2)c2c(C(C)(C)N(C)C#N)nn(-c3ccccc3)c21` (racemic) [Compound I-42, rac-N-((4R,5R)-7-ethyl-4-(4-fluorophenyl)-3-(2-(N-methylcyanamido)propan-2-yl)-6-oxo-1-phenyl-4,5,6,7-tetrahydro-1H-pyrazolo[3,4-b]pyridin-5-yl)-3-(trifluoromethyl)benzamide], for which the IC50 is, setting by setting: under setting [1], 1000 to 3000 nM; under setting [2], 1000 to 3000 nM.

In the case of `C/C=C(\C)S(=O)(=O)NCc1nn(-c2ccccc2)c2c1[C@H](c1ccc(F)cc1)[C@H](NC(=O)c1cccc(C(F)(F)F)c1)C(=O)N2CC` (racemic) [Compound I-159], the IC50 runs as follows: under setting [1], 200 to 1000 nM; under setting [2], 1000 to 3000 nM.

Turning to `CCN1C(=O)[C@@H](NC(=O)C2CC2C(F)(F)F)[C@@H](C2CC2)c2c(C(=O)N3[C@H](C#N)C[C@H]4C[C@H]43)nn(C3CCOCC3)c21` (stereo partly drawn) [Compound I-523], the IC50 is, setting by setting: under setting [1], 1000 to 3000 nM; under setting [2], 1000 to 3000 nM.

For `C/C=C/S(=O)(=O)NCc1nn(-c2ccccc2)c2c1[C@H](c1ccc(F)cc1)[C@H](NC(=O)c1cccc(C(F)(F)F)c1)C(=O)N2CC` (racemic) [Compound I-6], the IC50 is ≤ 200 nM under setting [1] and 200 to 1000 nM under setting [2].

Consider `C=C(CC(=O)OC)C(=O)NCc1nn(-c2ccccc2)c2c1[C@H](c1ccc(F)cc1)[C@H](NC(=O)c1cccc(C(F)(F)F)c1)C(=O)N2CC` (racemic) [Compound I-17], for which the IC50 reads like this: under setting [1], 1000 to 3000 nM; under setting [2], 1000 to 3000 nM.

In the case of `CCN1C(=O)[C@@H](NC(=O)c2ccc(N3CCN(C)CC3)cn2)[C@@H](C2CC2)c2c(C(=O)N3[C@H](C#N)C[C@H]4C[C@H]43)nn(C3CCOCC3)c21` [Compound I-588], the IC50 by setting is: under setting [1], 1000 to 3000 nM; under setting [2], 1000 to 3000 nM.

As to `CCN1C(=O)[C@@H](NC(=O)c2cc(C)n(C(C)(C)C)n2)[C@@H](C2CC2)c2c(C(=O)N3[C@H](C#N)C[C@H]4C[C@H]43)nn(C3CCOCC3)c21` [Compound I-691], the 50% inhibitory concentration (IC50) by setting is: under setting [1], ≤ 200 nM; under setting [2], 1000 to 3000 nM.

Turning to `CCN1C(=O)[C@@H](NC(=O)CCN2C(=O)COc3ccccc32)[C@@H](C2CC2)c2c(C(=O)N3[C@H](C#N)C[C@H]4C[C@H]43)nn(C3CCOCC3)c21` [Compound I-556], the IC50 reads like this: under setting [1], 1000 to 3000 nM; under setting [2], 1000 to 3000 nM.

`CCN1C(=O)[C@@H](NC(=O)c2cc(F)ccc2C(F)(F)F)[C@@H](C2CC2)c2c(C(=O)N3[C@H](C#N)C[C@H]4C[C@H]43)nn(C3CCOCC3)c21` [Compound I-623]: the IC50 reads like this: under setting [1], 1000 to 3000 nM; under setting [2], 1000 to 3000 nM.

Take `CCN1C(=O)[C@@H](NC(=O)c2cccc(C(F)(F)F)c2)[C@@H](c2ccc(F)cc2)c2c(CNC(=O)/C(C)=C/C(=O)OC)nn(-c3ccccc3)c21` (racemic) [Compound I-155]: the IC50 under setting [1] fell in the range of 200 to 1000 nM and the IC50 under setting [2] is 1000 to 3000 nM.

As to `CCN1C(=O)[C@@H](NC(=O)c2cccc(C(F)(F)F)c2)[C@H](c2ccc(F)cc2)c2c(CNC(=O)C3=C(C(=O)OC)CCC3)nn(-c3ccccc3)c21` (racemic) [Compound I-71], the IC50 was 200 to 1000 nM under setting [1] and 200 to 1000 nM under setting [2].

On to `CCN1C(=O)[C@@H](NC(=O)CC2=C(C)Cc3ccc(F)cc32)[C@@H](C2CC2)c2c(C(=O)N3[C@H](C#N)C[C@H]4C[C@H]43)nn(C3CCOCC3)c21` [Compound I-504], for which the IC50 reads like this: under setting [1], 1000 to 3000 nM; under setting [2], 1000 to 3000 nM.

As to `CCN1C(=O)[C@@H](NC(=O)c2c(Cl)cccc2Cl)[C@@H](C2CC2)c2c(C(=O)N3[C@H](C#N)C[C@H]4C[C@H]43)nn(C3CCOCC3)c21` [Compound I-473], the IC50 was 1000 to 3000 nM under setting [1] and 1000 to 3000 nM under setting [2].

As for `CCN1C(=O)[C@@H](NC(=O)c2cccc(C(F)(F)F)c2)[C@@H](c2ccc(F)cc2)c2c(CC/C=C/C(N)=O)nn(-c3ccccc3)c21` [Compound I-124], the IC50 under setting [1] was 200 to 1000 nM and the IC50 under setting [2] fell in the range of 200 to 1000 nM.

With `CCN1C(=O)[C@@H](NC(=O)c2cccc(C(F)(F)F)c2)[C@@H](c2ccc(F)cc2)c2c([C@H](O)CNC#N)nn(-c3ccccc3)c21` (racemic) [Compound I-9, rac-N-((4R,5R)-3-(2-cyanamido-1-hydroxyethyl)-7-ethyl-4-(4-fluorophenyl)-6-oxo-1-phenyl-4,5,6,7-tetrahydro-1H-pyrazolo[3,4-b]pyridin-5-yl)-3-(trifluoromethyl)benzamide], the IC50 was 1000 to 3000 nM under setting [1] and 200 to 1000 nM under setting [2].

Turning to `CCN1C(=O)[C@@H](NC(=O)C2=NN(c3ccccc3)C(=O)C2)[C@@H](C2CC2)c2c(C(=O)N3[C@H](C#N)C[C@H]4C[C@H]43)nn(C3CCOCC3)c21` [Compound I-591], the IC50 is 1000 to 3000 nM under setting [1] and 1000 to 3000 nM under setting [2].

Regarding `CCN1C(=O)[C@@H](NC(=O)c2cccc(C(F)(F)F)c2)[C@@H](c2ccc(F)cc2)c2c(CNC(=O)[C@@H](C)C#N)nn(-c3ccccc3)c21` (relative stereo) [Compound I-158, N-((4RS,5RS)-3-(((R*)-2-cyanopropanamido)methyl)-7-ethyl-4-(4-fluorophenyl)-6-oxo-1-phenyl-4,5,6,7-tetrahydro-1H-pyrazolo[3,4-b]pyridin-5-yl)-3-(trifluoromethyl)benzamide], the IC50 by setting is: under setting [1], 200 to 1000 nM; under setting [2], 200 to 1000 nM.

In the case of `CCN1C(=O)[C@@H](NC(=O)c2cccc(C(F)(F)F)c2)[C@@H](c2ccc(F)cc2)c2c(C/C=C/C(=O)NCCCO)nn(-c3ccccc3)c21` (racemic) [Compound I-24], the IC50 under setting [1] is 1000 to 3000 nM and the IC50 under setting [2] lay within 1000 to 3000 nM.

As for `CCN1C(=O)[C@@H](NC(=O)C2CCN(C)CC2)[C@@H](C2CC2)c2c(C(=O)N3[C@H](C#N)C[C@H]4C[C@H]43)nn(C3CCOCC3)c21` [Compound I-423], the IC50 lay in the range of 1000 to 3000 nM under setting [1] and 1000 to 3000 nM under setting [2].

For `CCN1C(=O)[C@@H](NC(=O)Cc2ccc(C)cc2C)[C@@H](C2CC2)c2c(C(=O)N3[C@H](C#N)C[C@H]4C[C@H]43)nn(C3CCOCC3)c21` [Compound I-511], the IC50 reads like this: under setting [1], 1000 to 3000 nM; under setting [2], 1000 to 3000 nM.

As to `CCN1C(=O)[C@@H](NC(=O)c2cccc(C(F)(F)F)c2)[C@@H](c2ccc(F)cc2)c2c(C/C=C/C(=O)N(C)C)nn(-c3ccccc3)c21` (racemic) [Compound I-41], the IC50 by setting is: under setting [1], 1000 to 3000 nM; under setting [2], 1000 to 3000 nM.

In the case of `CCN1C(=O)[C@@H](NC(=O)c2cccc(C(F)(F)F)c2)[C@@H](c2ccc(F)cc2)c2c(CNC(=O)C3(C#N)CCOCC3)nn(-c3ccccc3)c21` (racemic) [Compound I-22, rac-4-cyano-N-(((4R,5R)-7-ethyl-4-(4-fluorophenyl)-6-oxo-1-phenyl-5-(3-(trifluoromethyl)benzamido)-4,5,6,7-tetrahydro-1H-pyrazolo[3,4-b]pyridine-3-yl)methyl)tetrahydro-2H-pyran-4-carboxamide], the IC50 was 1000 to 3000 nM under setting [1] and 1000 to 3000 nM under setting [2].

In the case of `CCN1C(=O)[C@@H](NC(=O)c2ccc(C3CCN(C)CC3)cc2)[C@@H](C2CC2)c2c(C(=O)N3[C@H](C#N)C[C@H]4C[C@H]43)nn(C3CCOCC3)c21` [Compound I-653], the IC50 under setting [1] was 1000 to 3000 nM and the IC50 under setting [2] is 1000 to 3000 nM.

On to `CCN1C(=O)[C@@H](NC(=O)c2cccc(C(F)(F)F)c2C)[C@@H](C2CC2)c2c(C(=O)N3[C@H](C#N)C[C@H]4C[C@H]43)nn(C3CCOCC3)c21` [Compound I-468], for which the IC50 reads like this: under setting [1], ≤ 200 nM; (read-out: TR FRET IC50 1 hr, 1 hr after treatment with compound) ≤ 200 nM.

`CCN1C(=O)[C@@H](NC(=O)c2ccc(C3CC3)cc2)[C@@H](C2CC2)c2c(C(=O)N3[C@H](C#N)C[C@H]4C[C@H]43)nn(C3CCOCC3)c21` [Compound I-508]: the IC50 is ≤ 200 nM under setting [1] and 1000 to 3000 nM under setting [2].

With `CCN1C(=O)[C@@H](NC(=O)c2ccccc2)[C@@H](C2CC2)c2c(C(=O)N3[C@H](C#N)C[C@H]4C[C@H]43)nn(C3CCOCC3)c21` [Compound I-553], the IC50 runs as follows: under setting [1], ≤ 200 nM; under setting [2], 200 to 1000 nM.
